# Results taken from patent US20230085307A1, “PYRIDAZINONE COMPOUND AND HERBICIDE” (NISSAN CHEMICAL CORPORATION, priority 2019, published 2023).
# Assays:
# [1] = test system: persian speedwell; assay: Test Example 5: herbicidal effect by foliage application, plastic box (Table 20, symbol R); format: in vivo, Persian speedwell (Veronica persica); conditions: foliage application, 320 g/ha
# In short: (§1)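 Foliar spray test: emulsion formulation diluted in water to a set application rate, sprayed onto 14-day-old plants raised in diluvial soil at 25° C to 30° C under glass. Both herbicidal effect and crop effect rated visually three weeks later.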
# [2] = test system: false cleavers; assay: Test Example 4: herbicidal effect by soil treatment (Table 19, symbol Q); format: in vivo, false cleavers (Galium spurium); conditions: amount of applied herbicide 320 g/ha
# In short: (§2)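 Step 1: sow seeds in sterilized diluvial soil, cover ~1.5 cm. Step 2: spray diluted emulsion onto soil surface at predetermined rate. Step 3: greenhouse, 25–30° C, three weeks. Step 4: grade effect on each plant by earlier criteria.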
# [3] = test system: barnyard grass; assay: Test Example 4: herbicidal effect by soil treatment (Table 19, symbol H); format: in vivo, barnyard grass (Echinochloa crus-galli); conditions: amount of applied herbicide 320 g/ha
# In short: as §2
# [4] = test system: velvetleaf; assay: Test Example 4: herbicidal effect by soil treatment (Table 19, symbol M); format: in vivo, velvetleaf (Abutilon theophrasti); conditions: amount of applied herbicide 320 g/ha
# In short: as §2
# [5] = test system: Italian ryegrass; assay: Test Example 5: herbicidal effect by foliage application, plastic box (Table 20, symbol K); format: in vivo, Italian ryegrass (Lolium multiflorum); conditions: foliage application, 320 g/ha
# In short: as §1
# [6] = test system: Italian ryegrass; assay: Test Example 4: herbicidal effect by soil treatment (Table 19, symbol K); format: in vivo, Italian ryegrass (Lolium multiflorum); conditions: amount of applied herbicide 320 g/ha
# In short: as §2
# [7] = test system: redroot pigweed; assay: Test Example 4: herbicidal effect by soil treatment (Table 19, symbol N); format: in vivo, redroot pigweed (Amaranthus retroflexus); conditions: amount of applied herbicide 320 g/ha
# In short: as §2
# [8] = test system: chickweed; assay: Test Example 5: herbicidal effect by foliage application, plastic box (Table 20, symbol P); format: in vivo, common chickweed (Stellaria media); conditions: foliage application, 320 g/ha
# In short: as §1
# [9] = test system: blackgrass; assay: Test Example 4: herbicidal effect by soil treatment (Table 19, symbol J); format: in vivo, blackgrass (Alopecurus myosuroides); conditions: amount of applied herbicide 320 g/ha
# In short: as §2
# [10] = test system: southern crabgrass; assay: Test Example 4: herbicidal effect by soil treatment (Table 19, symbol F); format: in vivo, southern crabgrass (Digitaria ciliaris); conditions: amount of applied herbicide 320 g/ha
# In short: as §2
# [11] = test system: lambsquarters; assay: Test Example 5: herbicidal effect by foliage application, plastic box (Table 20, symbol O); format: in vivo, lambsquarters (Chenopodium album); conditions: foliage application, 320 g/ha
# In short: as §1
# [12] = test system: green foxtail; assay: Test Example 5: herbicidal effect by foliage application, plastic box (Table 20, symbol G); format: in vivo, green foxtail (Setaria viridis); conditions: foliage application, 320 g/ha
# In short: as §1
# [13] = test system: velvetleaf; assay: Test Example 5: herbicidal effect by foliage application, plastic box (Table 20, symbol M); format: in vivo, velvetleaf (Abutilon theophrasti); conditions: foliage application, 320 g/ha
# In short: as §1
# [14] = test system: green foxtail; assay: Test Example 4: herbicidal effect by soil treatment (Table 19, symbol G); format: in vivo, green foxtail (Setaria viridis); conditions: amount of applied herbicide 320 g/ha
# In short: as §2
# [15] = test system: Chinese sprangletop; assay: Test Example 3: herbicidal effect by foliage application, Wagner pot (Table 18, symbol D); format: in vivo, chinese sprangletop (Leptochloa chinensis); conditions: amount of applied herbicide 320 g/ha
# In short: (§3)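 Plants were sown in alluvial soil held under 0.1–0.5 cm standing water and grown 14 days in a greenhouse at 25–30 °C. An emulsifiable formulation, water-diluted to the set dose, was then sprayed onto the foliage, and effects were scored three weeks later using previously defined criteria.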
# [16] = test system: wild oat; assay: Test Example 4: herbicidal effect by soil treatment (Table 19, symbol I); format: in vivo, wild oat (Avena fatua); conditions: amount of applied herbicide 320 g/ha
# In short: as §2
# [17] = test system: southern crabgrass; assay: Test Example 5: herbicidal effect by foliage application, plastic box (Table 20, symbol F); format: in vivo, southern crabgrass (Digitaria ciliaris); conditions: foliage application, 320 g/ha
# In short: as §1
# [18] = test system: barnyard grass; assay: Test Example 5: herbicidal effect by foliage application, plastic box (Table 20, symbol H); format: in vivo, barnyard grass (Echinochloa crus-galli); conditions: foliage application, 320 g/ha
# In short: as §1
# [19] = test system: lambsquarters; assay: Test Example 4: herbicidal effect by soil treatment (Table 19, symbol O); format: in vivo, lambsquarters (Chenopodium album); conditions: amount of applied herbicide 320 g/ha
# In short: as §2
# [20] = test system: blackgrass; assay: Test Example 5: herbicidal effect by foliage application, plastic box (Table 20, symbol J); format: in vivo, blackgrass (Alopecurus myosuroides); conditions: foliage application, 320 g/ha
# In short: as §1
# [21] = test system: barnyard grass; assay: Test Example 3: herbicidal effect by foliage application, Wagner pot (Table 18, symbol H); format: in vivo, barnyard grass (Echinochloa crus-galli); conditions: amount of applied herbicide 320 g/ha
# In short: as §3
# [22] = test system: rice flat sedge; assay: Test Example 3: herbicidal effect by foliage application, Wagner pot (Table 18, symbol E); format: in vivo, rice flat sedge (Cyperus iria); conditions: amount of applied herbicide 320 g/ha
# In short: as §3
# [23] = test system: windgrass; assay: Test Example 5: herbicidal effect by foliage application, plastic box (Table 20, symbol L); format: in vivo, windgrass (Apera spica-venti); conditions: foliage application, 320 g/ha
# In short: as §1
# [24] = test system: redroot pigweed; assay: Test Example 5: herbicidal effect by foliage application, plastic box (Table 20, symbol N); format: in vivo, redroot pigweed (Amaranthus retroflexus); conditions: foliage application, 320 g/ha
# In short: as §1
# [25] = test system: windgrass; assay: Test Example 4: herbicidal effect by soil treatment (Table 19, symbol L); format: in vivo, windgrass (Apera spica-venti); conditions: amount of applied herbicide 320 g/ha
# In short: as §2
# [26] = test system: wild oat; assay: Test Example 5: herbicidal effect by foliage application, plastic box (Table 20, symbol I); format: in vivo, wild oat (Avena fatua); conditions: foliage application, 320 g/ha
# In short: as §1
# [27] = test system: persian speedwell; assay: Test Example 4: herbicidal effect by soil treatment (Table 19, symbol R); format: in vivo, Persian speedwell (Veronica persica); conditions: amount of applied herbicide 320 g/ha
# In short: as §2
# [28] = test system: chickweed; assay: Test Example 4: herbicidal effect by soil treatment (Table 19, symbol P); format: in vivo, common chickweed (Stellaria media); conditions: amount of applied herbicide 320 g/ha
# In short: as §2
# [29] = evaluated 3 weeks after application
smiles,measurement,setting,value
CSCCSc1ccc(-c2sc3ccc(F)cc3c2-c2c(O)c(C)nn(C)c2=O)cc1 [2-421],"R: persian speedwell, herbicidal effect grade",[1]; three weeks after application,5 (Herbicidal rate of 90% or more (almost completely withered))
same,"herbicidal effect, Q: false cleavers",[2],0 (Herbicidal rate of 5% or less (almost no effect))
same,"herbicidal effect, H: barnyard grass",[3],1 (Herbicidal rate of 5% or more and less than 20%)
same,"herbicidal effect, M: velvetleaf",[4],2 (Herbicidal rate of 20% or more and less than 40%)
same,"K: Italian ryegrass, herbicidal effect grade",[5]; three weeks after application,3 (Herbicidal rate of 40% or more and less than 70%)
same,"herbicidal effect, K: Italian ryegrass",[6],0 (Herbicidal rate of 5% or less (almost no effect))
same,"herbicidal effect, N: redroot pigweed",[7],5 (Herbicidal rate of 90% or more (almost completely withered))
same,"P: chickweed, herbicidal effect grade",[8]; three weeks after application,5 (Herbicidal rate of 90% or more (almost completely withered))
same,"herbicidal effect, J: blackgrass",[9],0 (Herbicidal rate of 5% or less (almost no effect))
same,"herbicidal effect, F: southern crabgrass",[10],2 (Herbicidal rate of 20% or more and less than 40%)
same,"O: lambsquarters, herbicidal effect grade",[11]; three weeks after application,4 (Herbicidal rate of 70% or more and less than 90%)
same,"G: green foxtail, herbicidal effect grade",[12]; three weeks after application,5 (Herbicidal rate of 90% or more (almost completely withered))
same,"M: velvetleaf, herbicidal effect grade",[13]; three weeks after application,3 (Herbicidal rate of 40% or more and less than 70%)
same,"herbicidal effect, G: green foxtail",[14],3 (Herbicidal rate of 40% or more and less than 70%)
same,herbicidal effect on D: Chinese sprangletop,[15],2 (Herbicidal rate of 20% or more and less than 40%)
same,"herbicidal effect, I: wild oat",[16],0 (Herbicidal rate of 5% or less (almost no effect))
same,"F: southern crabgrass, herbicidal effect grade",[17]; three weeks after application,5 (Herbicidal rate of 90% or more (almost completely withered))
same,"H: barnyard grass, herbicidal effect grade",[18]; three weeks after application,5 (Herbicidal rate of 90% or more (almost completely withered))
same,"herbicidal effect, O: lambsquarters",[19],1 (Herbicidal rate of 5% or more and less than 20%)
same,"J: blackgrass, herbicidal effect grade",[20]; three weeks after application,4 (Herbicidal rate of 70% or more and less than 90%)
same,herbicidal effect on H: barnyard grass,[21],5 (Herbicidal rate of 90% or more (almost completely withered))
same,herbicidal effect on E: rice flat sedge,[22],5 (Herbicidal rate of 90% or more (almost completely withered))
same,"L: windgrass, herbicidal effect grade",[23]; three weeks after application,5 (Herbicidal rate of 90% or more (almost completely withered))
same,"N: redroot pigweed, herbicidal effect grade",[24]; three weeks after application,5 (Herbicidal rate of 90% or more (almost completely withered))
same,"herbicidal effect, L: windgrass",[25],0 (Herbicidal rate of 5% or less (almost no effect))
same,"I: wild oat, herbicidal effect grade",[26]; three weeks after application,5 (Herbicidal rate of 90% or more (almost completely withered))
Cc1ccc2oc(-c3ccc(OC(F)F)cc3)c(-c3c(O)c(C)nn(C)c3=O)c2c1 [9-053],R (persian speedwell) herbicidal effect grade,[1]; [29],5 (Herbicidal rate of 90% or more (almost completely withered))
same,"Q: false cleavers, herbicidal effect grade",[2],0 (Herbicidal rate of 5% or less (almost no effect))
same,"H: barnyard grass, herbicidal effect grade",[3],4 (Herbicidal rate of 70% or more and less than 90%)
same,"M: velvetleaf, herbicidal effect grade",[4],4 (Herbicidal rate of 70% or more and less than 90%)
same,K (Italian ryegrass) herbicidal effect grade,[5]; [29],5 (Herbicidal rate of 90% or more (almost completely withered))
same,"K: Italian ryegrass, herbicidal effect grade",[6],5 (Herbicidal rate of 90% or more (almost completely withered))
same,"R: persian speedwell, herbicidal effect grade",[27],4 (Herbicidal rate of 70% or more and less than 90%)
same,"N: redroot pigweed, herbicidal effect grade",[7],5 (Herbicidal rate of 90% or more (almost completely withered))
same,P (chickweed) herbicidal effect grade,[8]; [29],5 (Herbicidal rate of 90% or more (almost completely withered))
same,"P: chickweed, herbicidal effect grade",[28],3 (Herbicidal rate of 40% or more and less than 70%)
same,"F: southern crabgrass, herbicidal effect grade",[10],2 (Herbicidal rate of 20% or more and less than 40%)
same,O (lambsquarters) herbicidal effect grade,[11]; [29],5 (Herbicidal rate of 90% or more (almost completely withered))
same,G (green foxtail) herbicidal effect grade,[12]; [29],4 (Herbicidal rate of 70% or more and less than 90%)
same,M (velvetleaf) herbicidal effect grade,[13]; [29],5 (Herbicidal rate of 90% or more (almost completely withered))
same,"G: green foxtail, herbicidal effect grade",[14],4 (Herbicidal rate of 70% or more and less than 90%)
same,"Herbicidal effect on D (Chinese sprangletop), foliage application",[15],0 (Herbicidal rate of 5% or less (almost no effect))
same,"I: wild oat, herbicidal effect grade",[16],0 (Herbicidal rate of 5% or less (almost no effect))
same,F (southern crabgrass) herbicidal effect grade,[17]; [29],3 (Herbicidal rate of 40% or more and less than 70%)
same,H (barnyard grass) herbicidal effect grade,[18]; [29],3 (Herbicidal rate of 40% or more and less than 70%)
same,"O: lambsquarters, herbicidal effect grade",[19],5 (Herbicidal rate of 90% or more (almost completely withered))
same,J (blackgrass) herbicidal effect grade,[20]; [29],4 (Herbicidal rate of 70% or more and less than 90%)
same,"Herbicidal effect on H (barnyard grass), foliage application",[21],4 (Herbicidal rate of 70% or more and less than 90%)
same,"Herbicidal effect on E (rice flat sedge), foliage application",[22],4 (Herbicidal rate of 70% or more and less than 90%)
same,L (windgrass) herbicidal effect grade,[23]; [29],3 (Herbicidal rate of 40% or more and less than 70%)
same,N (redroot pigweed) herbicidal effect grade,[24]; [29],5 (Herbicidal rate of 90% or more (almost completely withered))
same,"L: windgrass, herbicidal effect grade",[25],0 (Herbicidal rate of 5% or less (almost no effect))
same,I (wild oat) herbicidal effect grade,[26]; [29],0 (Herbicidal rate of 5% or less (almost no effect))
